# Source: US20260274843A1, “SALT AND SOLID FORMS OF A CDK INHIBITOR” (GENENTECH, INC., priority 2023, published 2026)
# Experiments:
# Format in all cases: physicochemical
# [1] = Estimated solubility measurement in selected solvents at room temperature; details: thermodynamic from solid
# Procedure: Preliminary solubility of Compound (I) was estimated in 13 selected solvents at room temperature. About 2 mg of Compound (I) was weighed into sample vials and different solvents were added with vortex, 20-200 μL per time, until the drug solution was clear by observation. The volume of solvent was up to 1000 V. Then, the estimated solubility (mg/mL) was calculated.
# [2] = Dynamic vapor sorption (DVS) moisture sorption/desorption; details: for hygroscopicity: in words
# Procedure: Moisture sorption/desorption data was collected on a DVS Intrinsic PLUS (SMS, UK). The sample was placed into a tared sample chamber and automatically weighed. The sample was dried at 40° C./0% RH until the dm/dt was less than 0.002% and cooled to 25° C. The instrument parameters were set as below. • Sample temperature: 25° C. • Min time per step: 30 min • Max time per step: 120 min • Cycle: Full cycle • Adsorption: 0, 10, 20, 30, 40, 50, 60, 70, 80, 90 • Desorption: 80, 70, 60, 50, 40, 30, 20, 10, 0 • Save data rate: 5 s • Total flow rate: 200 sccm • Post experimental total flow: 200 sscm
# [3] = Solubility testing in bio-relevant media (SGF, FaSSIF, FeSSIF) and water at 37° C.; details: after 0.5 hours
# Procedure: The solubility of maleate Form I, and tosylate Form I were tested in bio-relevant media (SGF, FaSSIF, and FeSSIF) and water at 37° C. up to 24 hours. About 15 mg of the sample was weighed into sample vials and then 3 mL of media was added to make a suspension. All suspensions were shaken at 37° C. with a rate of 200 rpm. At 0.5, 2 and 24 hours, each suspension was filtered and the filtrate was analyzed by HPLC to test the solubility. pH of the filtrate was measured, and the filter cake was analyzed by XRPD.
# [4] = Inter-conversion study by competitive slurry of mixed forms (XRPD); details: for resulting form after competitive slurry: RT and 50° C. or 60° C.
# Procedure: Inter-conversion study was performed by competitive slurry of mixed different forms in solvents. The concentration of all slurry suspensions was 20 mg/mL.
# Equal amount of Form I, II, III and IV were added into MeOH, IPA, EA, ACN and water to make suspensions, respectively. All suspensions were stirred at RT and 50° C. The filter cakes were checked by XRPD.
# Equal amount of Form I and II were added into the saturated solution of Compound (I). The suspensions were stirred in MeOH, IPA and EA at 60° C. overnight. The filter cakes were checked by XRPD.
# Equal amount of Form II and VII were added into the saturated solution of Compound (I). The suspensions were stirred in IPA and EA at RT and 50° C. The filter cakes were checked by XRPD.
# Equal amount of Form II and VI were slurred in different water activity system (1 mL of EtOH/water) at RT for 3 days. Solid samples were collected by filtration and analyzed by XRPD.
# Equal amount of Form III and VI were slurred in water at RT and 50° C. Solid samples were collected by filtration and analyzed by XRPD.
# [5] = Physical stability at RT/92.5% RH (XRPD); details: open, 10 days
# Procedure: (§1) Form II was prepared, characterized, and used for stability study. Solid stability of Form II was evaluated at RT/92.5% RH, 60° C. and 40° C./75% RH conditions for 10 days, respectively.
# Appropriate amount of Form II was open put at RT/92.5% RH condition for 10 days. Then, the sample was checked by XRPD.
# [6] = Solid stability at 40° C./75% RH and 60° C. (HPLC purity, XRPD); details: open; for Purity (Area %): HPLC
# Procedure: as §1
# An amount of Form II was open placed at 60° C. and 40° C./75% RH up to 10 days. At 0, 3 and 10 day, the sample was dissolved in diluent to prepare solution for purity analysis by HPLC. Solid samples were analyzed by XRPD to check the crystal form. […] Form II was physically and chemically stable at 40° C./75% RH and 60° C. for 10 days.
# Appropriate amounts of maleate Form I and tosylate Form I were placed at 60° C. and 40° C./75% RH for up to 24 days. At 0 and 24 day, the sample was dissolved in diluent to prepare solution for purity analysis by HPLC. Solid samples were analyzed by XRPD to check the crystal form.
# [7] = Mechanical treatment (grinding), XRPD check; details: ground in mortar, checked at 2 min and 5 min
# Procedure: Form II (~15 mg) was ground into a mortar for about 5 minutes, and then checked by XRPD at 2 min and 5 min, respectively.
# [8] = 40° C./75% RH and 60° C., up to 10 days
smiles,measurement,setting,value
"CC(C)c1cnn2ccc(-c3ccnc(Nc4ccc(N5CC[C@H](N(C)C)CC5=O)cn4)n3)cc12 [Compound (I), (S)-4-(dimethylamino)-1-(6-((4-(3-isopropylpyrazolo[1,5-a]pyridin-5-yl)pyrimidin-2-yl)amino)pyridin-3-yl)piperidin-2-one]",solubility,"[1]; organic solvent or mixture, DCM",> 120 mg/mL
same,solubility,"[1]; organic solvent or mixture, MeOH, MEK, EtOH and ACN",1 to 7 mg/mL
same,solubility,"[1]; organic solvent or mixture, THF",~20 mg/mL
same,solubility,[1]; other selected solvents,< 1 mg/mL
"CC(C)c1cnn2ccc(-c3ccnc(Nc4ccc(N5CC[C@H](N(C)C)CC5=O)cn4)n3)cc12 [Form I, (S)-4-(dimethylamino)-1-(6-((4-(3-isopropylpyrazolo[1,5-a]pyridin-5-yl)pyrimidin-2-yl)amino)pyridin-3-yl)piperidin-2-one]",hygroscopicity,[2],non-hygroscopicity
same,crystal form in water during solubility test,[3],converted to a metastable hydrate
same,resulting form after competitive slurry,[4]; non-aqueous solvent,transformed to Form II
"CC(C)c1cnn2ccc(-c3ccnc(Nc4ccc(N5CC[C@H](N(C)C)CC5=O)cn4)n3)cc12 [Form II, (S)-4-(dimethylamino)-1-(6-((4-(3-isopropylpyrazolo[1,5-a]pyridin-5-yl)pyrimidin-2-yl)amino)pyridin-3-yl)piperidin-2-one]",reversibility of DVS adsorption/desorption plot,[2],nearly reversible
same,water absorbed (DVS),"[2]; 0-90% RH, 25° C.",~ 0.5%
same,crystal form after DVS testing,[2]; XRPD after DVS,remained unchanged
same,hygroscopicity,[2],slightly hygroscopic
same,crystal form change (XRPD),[5],No form change
same,crystal form change (XRPD),[6]; [8],no form changed
same,degradation (purity by HPLC),[6]; [8],No obvious degradation
same,Purity (Area %),"[6]; 40° C./75% RH, 0 d (initial)",99.17 Area %
same,Purity (Area %),"[6]; 40° C./75% RH, 3 d",99.15 Area %
same,Purity (Area %),"[6]; 40° C./75% RH, 10 d",99.13 Area %
same,Purity (Area %),"[6]; 60° C., 0 d (initial)",99.17 Area %
same,Purity (Area %),"[6]; 60° C., 3 d",99.15 Area %
same,Purity (Area %),"[6]; 60° C., 10 d",99.09 Area %
same,resulting form in competitive slurry with Form VI,"[4]; EtOH/50% water, RT",transformed to the mixture of Form II and III
same,physical stability in competitive slurry with Form VI,"[4]; EtOH/water with less than 5% of water, RT",physically stable
same,relative stability among anhydrous forms,"[4]; temperature below 60° C., non-aqueous solvent",most stable anhydrous form
same,resulting form after slurry in water,[4]; 50° C.,mixture of Form II and III
same,resulting form after slurry in water,[4]; RT,transform to Form III
same,crystal form after grinding,[7],remained unchanged
"CC(C)c1cnn2ccc(-c3ccnc(Nc4ccc(N5CC[C@H](N(C)C)CC5=O)cn4)n3)cc12 [Form III, (S)-4-(dimethylamino)-1-(6-((4-(3-isopropylpyrazolo[1,5-a]pyridin-5-yl)pyrimidin-2-yl)amino)pyridin-3-yl)piperidin-2-one]",resulting form after competitive slurry,[4]; non-aqueous solvent,transformed to Form II
same,resulting form after slurry in water,[4]; 50° C.,to Form VI
"CC(C)c1cnn2ccc(-c3ccnc(Nc4ccc(N5CC[C@H](N(C)C)CC5=O)cn4)n3)cc12 [Form IV, (S)-4-(dimethylamino)-1-(6-((4-(3-isopropylpyrazolo[1,5-a]pyridin-5-yl)pyrimidin-2-yl)amino)pyridin-3-yl)piperidin-2-one]",resulting form after competitive slurry,[4]; non-aqueous solvent,transformed to Form II
"CC(C)c1cnn2ccc(-c3ccnc(Nc4ccc(N5CC[C@H](N(C)C)CC5=O)cn4)n3)cc12 [Form VI, (S)-4-(dimethylamino)-1-(6-((4-(3-isopropylpyrazolo[1,5-a]pyridin-5-yl)pyrimidin-2-yl)amino)pyridin-3-yl)piperidin-2-one]",resulting form after slurry in water,[4]; RT,transformed to Form III
